Data on 13 molecules can be found in PubChem BioAssay (NCI).

Some test systems named below: SK-MEL-2 melanoma; HT29 colon; RXF 393 renal; NCI-H460 lung; TK-10 renal; OVCAR-4 ovarian; OVCAR-3 ovarian; SK-OV-3 ovarian; OVCAR-8 ovarian; HOP-62 NSCLC.
Test in all cases: NCI anticancer screen, dose series, 48 h

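Grown in 96-well plates, cells were treated for 48 hours with each compound at five concentrations. Insufficient inhibition: endpoint recorded as highest concentration tested. Abbreviation: GI50, concentration required for 50% inhibition of growth. The concentration for full growth arrest is given as TGI.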

For the molecule `O=C(CN(/C=C/C(=O)C(F)(F)F)c1ccccc1)c1ccc(Cl)cc1`, the GI50 is 19.2 µM with SK-MEL-2 melanoma; 34.5 µM in the test on HT29 colon; 17.1 µM in the test on RXF 393 renal; 16.1 µM in the test with NCI-H460 lung; 28 µM in the test on TK-10 renal; 26.6 µM in the test with OVCAR-4 ovarian. The GI50 with OVCAR-3 ovarian was 21.6 µM; in the test on SK-OV-3 ovarian, 36.4 µM; with OVCAR-8 ovarian, 18.6 µM; in the test on HOP-62 NSCLC, 17.2 µM. Moreover, the TGI in the test on SK-MEL-2 melanoma was 43.9 µM; in the test with HT29 colon, above 100 µM; in the test with RXF 393 renal, 42.6 µM; in the test with NCI-H460 lung, 38.2 µM; in the test with TK-10 renal it was 88.2 µM; in the test with OVCAR-4 ovarian it was 70.1 µM. For the same molecule, the TGI is 46.7 µM in the test on OVCAR-3 ovarian, above 100 µM in the test with SK-OV-3 ovarian, 45.5 µM in the test on OVCAR-8 ovarian and 31.8 µM with HOP-62 NSCLC.
For the molecule `O=c1[nH]c(=O)n(C2CC(O)C(CO)O2)cc1COCC(F)(F)F` (stereo not given), the TGI in the test with SK-MEL-2 melanoma, in the test on HT29 colon, in the test on RXF 393 renal, with NCI-H460 lung, in the test on TK-10 renal and in the test with OVCAR-4 ovarian was above 100 µM each time. Moreover, the TGI in the test on OVCAR-3 ovarian, with SK-OV-3 ovarian, in the test with OVCAR-8 ovarian and with HOP-62 NSCLC was above 100 µM in each case.
`COc1cccc2nc3c(C(=O)NCCN(C)C)cccc3nc12`: the TGI is 22.7 µM in the test with SK-MEL-2 melanoma; 32 µM in the test on HT29 colon; 26.7 µM with RXF 393 renal; 21 µM in the test with NCI-H460 lung; 61 µM in the test on TK-10 renal; 26.7 µM in the test with OVCAR-4 ovarian. Further, the TGI in the test with OVCAR-3 ovarian was 73.9 µM; with SK-OV-3 ovarian, above 46.4 µM; with OVCAR-8 ovarian, above 88 µM; in the test with HOP-62 NSCLC, 38.2 µM.
As for `COc1cc(-c2nccc3cc4c(cc23)OCO4)cc(OC)c1OC`, the GI50 is 3.08 µM in the test with SK-MEL-2 melanoma; 2.33 µM in the test on HT29 colon; 3.4 µM in the test on RXF 393 renal; 3.83 µM in the test with NCI-H460 lung; 5.64 µM in the test on TK-10 renal; above 100 µM with OVCAR-4 ovarian. In addition, the GI50 with OVCAR-3 ovarian was 2.09 µM; in the test on SK-OV-3 ovarian, 4.48 µM; in the test with OVCAR-8 ovarian, 7.08 µM; with HOP-62 NSCLC it was 7.55 µM. In addition, the TGI is above 100 µM in the test on SK-MEL-2 melanoma; above 100 µM in the test with HT29 colon; 18.3 µM in the test on RXF 393 renal; above 100 µM in the test on NCI-H460 lung; above 100 µM in the test on TK-10 renal; above 100 µM with OVCAR-4 ovarian. In addition, the TGI is 4.72 µM with OVCAR-3 ovarian, above 100 µM with SK-OV-3 ovarian, above 100 µM in the test on OVCAR-8 ovarian and above 100 µM in the test on HOP-62 NSCLC.
As to `C/C(=N\NC(N)=S)c1sc(-n2nc(-c3ccccc3)cc2-c2ccccc2)nc1C`, the TGI in the test on SK-MEL-2 melanoma, in the test with HT29 colon, in the test with RXF 393 renal, in the test on NCI-H460 lung, with TK-10 renal and in the test with OVCAR-4 ovarian was above 100 µM each time. The TGI with OVCAR-3 ovarian, with SK-OV-3 ovarian, in the test with OVCAR-8 ovarian and in the test on HOP-62 NSCLC was above 100 µM in each case.
For the molecule `CCC(C)(O)c1cn(-c2ccc(S(=O)(=O)O)cc2)nn1` (stereo not given), the TGI in the test with SK-MEL-2 melanoma, with HT29 colon, in the test with RXF 393 renal, with NCI-H460 lung, in the test on TK-10 renal and in the test with OVCAR-4 ovarian was above 100 µM in each case. The TGI in the test on OVCAR-3 ovarian, in the test on SK-OV-3 ovarian, in the test with OVCAR-8 ovarian and in the test on HOP-62 NSCLC was above 100 µM in each case.
Take `CN1CCN(CCCOc2cccc3nc(Nc4ccc(F)c(F)c4)ccc23)CC1`: the GI50 was 3.95 µM in the test on SK-MEL-2 melanoma; 0.616 µM with HT29 colon; 2.11 µM with RXF 393 renal; 2.37 µM with NCI-H460 lung; 2.63 µM in the test with TK-10 renal; 6.42 µM in the test with OVCAR-4 ovarian. For the same molecule, the GI50 in the test with OVCAR-3 ovarian was 4.58 µM; with SK-OV-3 ovarian, 4.39 µM; in the test with OVCAR-8 ovarian it was 5.13 µM; with HOP-62 NSCLC, 1.25 µM. The TGI in the test on SK-MEL-2 melanoma amounted to 8.62 µM; in the test with HT29 colon it was 1.35 µM; in the test with RXF 393 renal it was 6.57 µM; with NCI-H460 lung, 8.9 µM; in the test with TK-10 renal, 6.94 µM; in the test with OVCAR-4 ovarian, 15.2 µM. For the same molecule, the TGI is 9.51 µM in the test on OVCAR-3 ovarian, 8.87 µM in the test on SK-OV-3 ovarian, 10.2 µM with OVCAR-8 ovarian and 5.34 µM with HOP-62 NSCLC.
Take `C=Cc1c(C)c2cc3[nH]c(cc4nc(cc5nc(cc1[nH]2)C(C)=C5CCC(=O)N(CC)CC)C(CCC(=O)N(CC)CC)=C4C)c(C)c3C=C`: the TGI with SK-MEL-2 melanoma, in the test with HT29 colon, with RXF 393 renal, in the test with NCI-H460 lung, with TK-10 renal and with OVCAR-4 ovarian was above 100 µM in each case. Besides, the TGI with OVCAR-3 ovarian, with SK-OV-3 ovarian, with OVCAR-8 ovarian and in the test on HOP-62 NSCLC was above 100 µM throughout.
As to `O=c1c2cccnc2ncn1CCCN1CCCC1`, the TGI with SK-MEL-2 melanoma, in the test with HT29 colon, in the test with RXF 393 renal, in the test on NCI-H460 lung, in the test with TK-10 renal and in the test on OVCAR-4 ovarian was above 100 µM throughout. For the same molecule, the TGI in the test on OVCAR-3 ovarian, in the test with SK-OV-3 ovarian, in the test with OVCAR-8 ovarian and in the test on HOP-62 NSCLC was above 100 µM throughout.
`N#C/C(=C\c1ccccc1)C(NO)Nc1ccccc1` (stereo not given): the TGI with SK-MEL-2 melanoma, in the test on HT29 colon, in the test with RXF 393 renal, with NCI-H460 lung, in the test on TK-10 renal and in the test on OVCAR-4 ovarian was above 100 µM throughout. The TGI in the test on OVCAR-3 ovarian, in the test on SK-OV-3 ovarian, with OVCAR-8 ovarian and with HOP-62 NSCLC was above 100 µM each time.
As for `Cn1cncc1-c1c(F)cncc1NC(=O)c1c(N)nn2cc(F)cnc12`, the GI50 with SK-MEL-2 melanoma was 0.0751 µM; in the test with HT29 colon, 3.61 µM; with RXF 393 renal, 0.278 µM; with NCI-H460 lung, 1.27 µM; in the test with TK-10 renal, 4.54 µM; with OVCAR-4 ovarian, 1.27 µM. The GI50 in the test with OVCAR-3 ovarian is 0.407 µM; in the test with SK-OV-3 ovarian, 0.743 µM; in the test with OVCAR-8 ovarian, 5.83 µM; with HOP-62 NSCLC, 5.21 µM. For the same molecule, the TGI in the test on SK-MEL-2 melanoma was 0.397 µM; with HT29 colon, above 100 µM; in the test with RXF 393 renal it was 16.8 µM; in the test on NCI-H460 lung, above 100 µM; in the test on TK-10 renal, 83.7 µM; in the test on OVCAR-4 ovarian, 14.4 µM. Besides, the TGI in the test with OVCAR-3 ovarian is 2.29 µM; in the test with SK-OV-3 ovarian, 8.92 µM; in the test with OVCAR-8 ovarian it was above 100 µM; with HOP-62 NSCLC, above 100 µM.
Take `CCc1nc2cc(/C=C/C(=O)NO)ccc2c(=O)n1CCc1ccc(OC)cc1`: the GI50 in the test on SK-MEL-2 melanoma was 3.66 µM; with HT29 colon it was 2.31 µM; with RXF 393 renal, 1.74 µM; in the test on NCI-H460 lung it was 1.83 µM; in the test with TK-10 renal, 1.6 µM; with OVCAR-4 ovarian, 2.96 µM. The GI50 in the test on OVCAR-3 ovarian was 2.03 µM; in the test with SK-OV-3 ovarian it was 2.42 µM; in the test on OVCAR-8 ovarian, 2.27 µM; in the test on HOP-62 NSCLC, 2.45 µM. Besides, the TGI in the test on SK-MEL-2 melanoma worked out at 24.9 µM; in the test with HT29 colon, 49.5 µM; in the test on RXF 393 renal it was 4.74 µM; with NCI-H460 lung, 10.1 µM; with TK-10 renal, 5.79 µM; in the test with OVCAR-4 ovarian it was 58.7 µM. Also, the TGI stood at 7.19 µM in the test on OVCAR-3 ovarian, 6.11 µM with SK-OV-3 ovarian, 15.5 µM in the test on OVCAR-8 ovarian and 7.68 µM in the test with HOP-62 NSCLC.
For `Cc1c(C)c2c(c(C)c1OCC(=O)O)CC[C@@](C)(CCC[C@@H](C)CCC[C@@H](C)CCCC(C)C)O2`, the GI50 with SK-MEL-2 melanoma was 64.4 µM; with HT29 colon it was 58.3 µM; in the test with RXF 393 renal, 61.6 µM; with NCI-H460 lung, 55.3 µM; with TK-10 renal it was 85.6 µM; in the test on OVCAR-4 ovarian it was 59.6 µM. Also, the GI50 in the test on OVCAR-3 ovarian is 77.3 µM; in the test with SK-OV-3 ovarian, 76.8 µM; in the test on OVCAR-8 ovarian it was 59.4 µM; with HOP-62 NSCLC it was 62.2 µM. The TGI is 142 µM in the test on SK-MEL-2 melanoma; 140 µM in the test on HT29 colon; 137 µM with RXF 393 renal; 168 µM in the test on NCI-H460 lung; 154 µM in the test with TK-10 renal; 136 µM in the test with OVCAR-4 ovarian. Further, the TGI was 154 µM in the test on OVCAR-3 ovarian, 148 µM in the test on SK-OV-3 ovarian, 152 µM in the test with OVCAR-8 ovarian and 161 µM in the test with HOP-62 NSCLC.
